From patent US10479780B2, “Aminopyrazole derivatives” (Chugai Seiyaku Kabushiki Kaisha, priority 2015, dated 2019) come the findings set out here.

pIC50: −log10 of the molar value.

What all share (type): biochemical
One test has as its target T1, human Yes1 enzyme (Homo sapiens, UniProt P07947).
T1 construct: made in house
The test can be described thus: Yes1 enzyme inhibitory activity (time-resolved fluorometry, biotinylated peptide phosphorylation). The note with it: read-out: YES_IC50. In a few lines: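 Inhibition was expressed against a compound-free control to give IC50, using TR-FRET read-out (Eu-cryptate anti-pTyr antibody, streptavidin-XL665).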

For a further test, the target named is T2, human Src enzyme (Homo sapiens, UniProt P12931).
T2 construct: purchased Carna Biosciences, Inc. 08-173
T2 sequence (P12931 whole entry): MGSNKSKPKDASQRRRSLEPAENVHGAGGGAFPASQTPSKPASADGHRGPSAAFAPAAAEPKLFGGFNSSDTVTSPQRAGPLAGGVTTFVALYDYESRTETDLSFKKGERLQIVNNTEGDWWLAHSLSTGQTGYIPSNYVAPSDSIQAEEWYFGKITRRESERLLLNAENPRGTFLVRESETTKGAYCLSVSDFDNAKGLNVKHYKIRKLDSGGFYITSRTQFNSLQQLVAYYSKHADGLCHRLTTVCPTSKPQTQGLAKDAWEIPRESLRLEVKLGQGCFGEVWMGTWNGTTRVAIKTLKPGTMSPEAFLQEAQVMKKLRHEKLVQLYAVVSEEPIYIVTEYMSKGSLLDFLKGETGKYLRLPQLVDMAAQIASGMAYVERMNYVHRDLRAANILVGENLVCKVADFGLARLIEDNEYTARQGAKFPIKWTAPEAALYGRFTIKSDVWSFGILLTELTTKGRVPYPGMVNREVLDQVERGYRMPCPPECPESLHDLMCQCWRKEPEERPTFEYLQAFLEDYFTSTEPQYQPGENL
Kind of test: Src enzyme inhibitory activity (time-resolved fluorometry, biotinylated peptide phosphorylation). The note with it: read-out: SRC_IC50. The method in brief: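 Compounds were tested for blocking tyrosine phosphorylation of a biotinylated peptide substrate by recombinant human Src. Phosphorylated product was quantified by time-resolved fluorometry using europium cryptate and XL665 conjugates, and IC50 was calculated against the compound-free control.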

The target in another test is T3, human Lck enzyme (Homo sapiens, UniProt P06239).
T3 construct: purchased Carna Biosciences, Inc. 08-170
T3 sequence (P06239 whole entry): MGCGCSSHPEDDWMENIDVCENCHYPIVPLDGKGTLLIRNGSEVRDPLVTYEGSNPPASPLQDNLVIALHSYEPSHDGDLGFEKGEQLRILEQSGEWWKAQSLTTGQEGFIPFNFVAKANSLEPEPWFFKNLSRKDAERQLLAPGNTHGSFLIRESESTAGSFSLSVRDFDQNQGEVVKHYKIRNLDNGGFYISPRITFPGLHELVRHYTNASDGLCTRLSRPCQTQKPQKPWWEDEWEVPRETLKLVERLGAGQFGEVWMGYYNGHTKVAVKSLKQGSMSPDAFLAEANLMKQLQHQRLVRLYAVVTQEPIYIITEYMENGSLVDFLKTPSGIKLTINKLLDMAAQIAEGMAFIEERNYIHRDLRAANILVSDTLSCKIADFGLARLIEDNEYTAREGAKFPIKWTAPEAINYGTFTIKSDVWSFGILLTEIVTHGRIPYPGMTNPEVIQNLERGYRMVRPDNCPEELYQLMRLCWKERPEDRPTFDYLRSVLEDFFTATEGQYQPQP
The test can be described thus: Lck enzyme inhibitory activity (time-resolved fluorometry, biotinylated peptide phosphorylation). The note with it: read-out: LCK_IC50. The method in brief:
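Readout pairs a europium cryptate-labelled anti-phosphotyrosine antibody with XL665-streptavidin, measured by time-resolved fluorescence. IC50 derived from percent inhibition against untreated controls.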

T1 sequence (P07947 whole entry): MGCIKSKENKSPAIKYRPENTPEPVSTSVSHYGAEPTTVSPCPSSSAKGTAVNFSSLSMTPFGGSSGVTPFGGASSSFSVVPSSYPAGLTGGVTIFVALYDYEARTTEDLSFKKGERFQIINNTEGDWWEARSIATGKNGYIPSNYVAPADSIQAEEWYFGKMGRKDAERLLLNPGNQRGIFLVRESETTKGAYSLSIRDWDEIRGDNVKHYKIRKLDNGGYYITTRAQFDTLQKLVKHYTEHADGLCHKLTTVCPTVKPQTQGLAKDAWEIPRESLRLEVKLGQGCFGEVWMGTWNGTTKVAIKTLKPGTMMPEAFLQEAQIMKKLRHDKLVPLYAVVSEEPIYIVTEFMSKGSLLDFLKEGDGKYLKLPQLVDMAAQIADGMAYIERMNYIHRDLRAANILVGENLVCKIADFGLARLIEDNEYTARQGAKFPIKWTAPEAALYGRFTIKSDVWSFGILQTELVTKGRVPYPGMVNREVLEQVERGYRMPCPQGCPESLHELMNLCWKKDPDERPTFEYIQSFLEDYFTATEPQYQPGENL

Consider `Cc1cc(Oc2ccccc2F)ccc1-n1ncc(C(=O)c2cc3cc(OCC(F)F)c(N4C(=O)OC[C@H]4Cc4ccccc4)cc3[nH]2)c1N` [Example 5-1-244, (4R)-3-[2-[5-amino-1-[4-(2-fluorophenoxy)-2-methylphenyl]pyrazole-4-carbonyl]-5-(2,2-difluoroethoxy)-1H-indol-6-yl]-4-benzyl-1,3-oxazolidin-2-one], for which the figures for the pIC50 at human Yes1 enzyme, on human Src enzyme and on human Lck enzyme were 8.00, 7.74 and 7.40, respectively.

Take `Cc1cc(Oc2ccccc2F)ccc1-n1ncc(C(=O)c2cc3cc(OCC(F)F)c(N4C(=O)OC[C@@H]4Cc4ccccc4)cc3[nH]2)c1N` [Example 5-1-245, (4S)-3-[2-[5-amino-1-[4-(2-fluorophenoxy)-2-methylphenyl]pyrazole-4-carbonyl]-5-(2,2-difluoroethoxy)-1H-indol-6-yl]-4-benzyl-1,3-oxazolidin-2-one]: the pIC50 was 8.15 at human Yes1 enzyme, 7.64 on human Src enzyme and 7.24 on human Lck enzyme.

Regarding `COC(=O)[C@H](Cc1cnc[nH]1)NC(=O)Nc1cc2[nH]c(C(=O)c3cnn(-c4ccc(Oc5ccccc5F)cc4C)c3N)cc2cc1OCC(F)F` [Example 5-1-246, Methyl (2S)-2-[[2-[5-amino-1-[4-(2-fluorophenoxy)-2-methylphenyl]pyrazole-4-carbonyl]-5-(2,2-difluoroethoxy)-1H-indol-6-yl]carbamoylamino]-3-(1H-imidazol-5-yl) propanoate], the pIC50 is 8.80 on human Yes1 enzyme, 7.80 on human Src enzyme and 8.15 on human Lck enzyme.

`Cc1cc(-n2ncc(C(=O)c3cc4cc(OC5CCN(C(C)C)CC5)c(C5CCOCC5)cc4[nH]3)c2N)ccc1Oc1ccccc1F` [Example 5-1-247, (5-amino-1-(4-(2-fluorophenoxy)-3-methylphenyl)-1H-pyrazol-4-yl)(5-((1-isopropylpiperidin-4-yl)oxy)-6-(tetrahydro-2H-pyran-4-yl)-1H-indol-2-yl)methanone]: the pIC50 at human Yes1 enzyme was 8.68; on human Src enzyme, 6.92; at human Lck enzyme, 7.47.

For `Cc1cc(Oc2c(F)cccc2F)ncc1-n1ncc(C(=O)c2cc3cc(OC4CCN(C(C)C)CC4)c(C4CCOCC4)cc3[nH]2)c1N` [Example 5-1-248, [5-amino-1-[6-(2,6-difluorophenoxy)-4-methylpyridin-3-yl]pyrazol-4-yl]-[6-(oxan-4-yl)-5-(1-propan-2-ylpiperidin-4-yl)oxy-1H-indol-2-yl]methanone], the pIC50 on human Yes1 enzyme was 9.01; on human Src enzyme, 8.10; at human Lck enzyme it was 8.33.

In the case of `Cc1cc(Oc2c(F)cccc2F)ncc1-n1ncc(C(=O)c2cc3cc(OC4CCN(C(C)C)CC4)c(-c4cnn(C)c4)cc3[nH]2)c1N` [Example 5-1-249, [5-amino-1-[6-(2,6-difluorophenoxy)-4-methylpyridin-3-yl]pyrazol-4-yl]-[6-(1-methylpyrazol-4-yl)-5-(1-propan-2-ylpiperidin-4-yl)oxy-1H-indol-2-yl]methanone], the pIC50 on human Yes1 enzyme was 9.11; on human Src enzyme, 8.13; on human Lck enzyme, 8.43.

For the compound `Cc1cc(Oc2ccccc2F)ccc1-n1ncc(C(=O)c2cc3cc(OCC(F)F)c(N4C(=O)[C@@H]5C[C@@H](O)CN5C4=O)cc3[nH]2)c1N` [Example 5-1-250], the figures for the pIC50 at human Yes1 enzyme, at human Src enzyme and at human Lck enzyme were 9.12, 8.12 and 8.55, respectively.

Take `Cc1cc(Oc2ccccc2F)ccc1-n1ncc(C(=O)c2cc3cc(OCC(F)F)c(N4C(=O)N[C@@H](Cc5ccc(O)cc5)C4=O)cc3[nH]2)c1N` [Example 5-1-251, (5S)-3-[2-[5-amino-1-[4-(2-fluorophenoxy)-2-methylphenyl]pyrazole-4-carbonyl]-5-(2,2-difluoroethoxy)-1H-indol-6-yl]-5-[(4-hydroxyphenyl)methyl]imidazolidine-2,4-dione]: the figures for the pIC50 at human Yes1 enzyme, on human Src enzyme and at human Lck enzyme were 8.42, 7.60 and 7.82, respectively.

As for `Cc1cc(Oc2ccccc2F)ccc1-n1ncc(C(=O)c2cc3cc(OCC(F)F)c(N4C(=O)[C@@H]5CCCN5C4=O)cc3[nH]2)c1N` [Example 5-1-252, (7aS)-2-[2-[5-amino-1-[4-(2-fluorophenoxy)-2-methylphenyl]pyrazole-4-carbonyl]-5-(2,2-difluoroethoxy)-1H-indol-6-yl]-5,6,7,7a-tetrahydropyrrolo[1,2-c]imidazole-1,3-dione], the pIC50 was 8.92 on human Yes1 enzyme, 7.85 at human Src enzyme and 8.34 at human Lck enzyme.

In the case of `Cc1cc(Oc2ccccc2F)ccc1-n1ncc(C(=O)c2cc3cc(OCC(F)F)c(N4C(=O)[C@@H]5C[C@H](NC(=O)OCC6c7ccccc7-c7ccccc76)CN5C4=O)cc3[nH]2)c1N` [Example 5-1-253, 9H-fluoren-9-ylmethyl N-[(6S,7aS)-2-[2-[5-amino-1-[4-(2-fluorophenoxy)-2-methylphenyl]pyrazole-4-carbonyl]-5-(2,2-difluoroethoxy)-1H-indol-6-yl]-1,3-dioxo-5,6,7,7a-tetrahydropyrrolo[1,2-c]imidazol-6-yl] carbamate], the pIC50 on human Yes1 enzyme is 9.48; on human Src enzyme it was 7.64; at human Lck enzyme, 7.34.

As for `Cc1cc(Oc2ccccc2F)ccc1-n1ncc(C(=O)c2cc3cc(OCC(F)F)c(N4C(=O)[C@@H]5C[C@H](NS(=O)(=O)CCCF)CN5C4=O)cc3[nH]2)c1N` [Example 5-1-255, N-[(6S,7aS)-2-[2-[5-amino-1-[4-(2-fluorophenoxy)-2-methylphenyl]pyrazole-4-carbonyl]-5-(2,2-difluoroethoxy)-1H-indol-6-yl]-1,3-dioxo-5,6,7,7a-tetrahydropyrrolo[1,2-c]imidazol-6-yl]-3-fluoropropane-1-sulfonamide], the pIC50 is 8.96 at human Yes1 enzyme, 8.05 at human Src enzyme and 8.35 on human Lck enzyme.

In the case of `Cc1cc(Oc2c(F)cccc2F)ncc1-n1ncc(C(=O)c2cc3cc(OCC(F)F)c(-c4cccs4)cc3[nH]2)c1N` [Example 5-1-257, [5-amino-1-[6-(2,6-difluorophenoxy)-4-methylpyridin-3-yl]pyrazol-4-yl]-[5-(2,2-difluoroethoxy)-6-thiophen-2-yl-1H-indol-2-yl] methanone], the pIC50 at human Yes1 enzyme is 7.40; on human Src enzyme, 6.60; on human Lck enzyme, 7.02.

Take `Cc1cc(-n2ncc(C(=O)c3cc4cc(OCC(F)F)c(C5CCOCC5)cc4[nH]3)c2N)ccc1Oc1ccccc1F` [Example 5-1-258, [5-amino-1-[4-(2-fluorophenoxy)-3-methylphenyl]pyrazol-4-yl]-[5-(2,2-difluoroethoxy)-6-(oxan-4-yl)-1H-indol-2-yl] methanone]: the values for the pIC50 on human Yes1 enzyme, on human Src enzyme and on human Lck enzyme were 7.74, 5.54 and 6.14, respectively.

For the compound `Cc1cc(Oc2c(F)cccc2F)ncc1-n1ncc(C(=O)c2cc3cc(OCC(F)F)c(C4CCOCC4)cc3[nH]2)c1N` [Example 5-1-259, [5-amino-1-[6-(2,6-difluorophenoxy)-4-methylpyridin-3-yl]pyrazol-4-yl]-[5-(2,2-difluoroethoxy)-6-(oxan-4-yl)-1H-indol-2-yl] methanone], the figures for the pIC50 on human Yes1 enzyme, on human Src enzyme and at human Lck enzyme were 8.12, 7.30 and 7.60, respectively.

Take `Cc1cc(Oc2ccccc2F)ccc1-n1ncc(C(=O)c2cc3cc(C(C)C)c(Br)cc3[nH]2)c1N` [Example 5-1-260, [5-amino-1-[4-(2-fluorophenoxy)-2-methylphenyl]pyrazol-4-yl]-(6-bromo-5-propan-2-yl-1H-indol-2-yl)methanone]: the pIC50 on human Yes1 enzyme is 8.07; on human Src enzyme, 7.21; at human Lck enzyme it was 7.36.

Regarding `Cc1cc(-n2ncc(C(=O)c3cc4cc(OCC(F)F)c(-c5cncnc5)cc4[nH]3)c2N)ccc1Oc1ccccc1F` [Example 5-1-261, [5-amino-1-[4-(2-fluorophenoxy)-3-methylphenyl]pyrazol-4-yl]-[5-(2,2-difluoroethoxy)-6-pyrimidin-5-yl-1H-indol-2-yl]methanone], the values for the pIC50 on human Yes1 enzyme, on human Src enzyme and on human Lck enzyme were 8.10, 6.41 and 6.70, respectively.

For `Cc1cc(Oc2c(F)cccc2F)ncc1-n1ncc(C(=O)c2cc3cc(OCC(F)F)c(-c4cncnc4)cc3[nH]2)c1N` [Example 5-1-262, [5-amino-1-[6-(2,6-difluorophenoxy)-4-methylpyridin-3-yl]pyrazol-4-yl]-[5-(2,2-difluoroethoxy)-6-pyrimidin-5-yl-1H-indol-2-yl]methanone], the pIC50 is 8.64 at human Yes1 enzyme, 8.19 on human Src enzyme and 7.92 at human Lck enzyme.

As for `Cc1cc(-n2ncc(C(=O)c3cc4cc(OCC(F)F)c(-c5cnn(C)c5)cc4[nH]3)c2N)ccc1Oc1ccccc1F` [Example 5-1-263, [5-amino-1-[4-(2-fluorophenoxy)-3-methylphenyl]pyrazol-4-yl]-[5-(2,2-difluoroethoxy)-6-(1-methylpyrazol-4-yl)-1H-indol-2-yl]methanone], the pIC50 on human Yes1 enzyme is 7.72; at human Src enzyme it was 5.59; at human Lck enzyme, 6.15.

For the compound `Cc1cc(Oc2c(F)cccc2F)ncc1-n1ncc(C(=O)c2cc3cc(OCC(F)F)c(-c4cnn(C)c4)cc3[nH]2)c1N` [Example 5-1-264, [5-amino-1-[6-(2,6-difluorophenoxy)-4-methylpyridin-3-yl]pyrazol-4-yl]-[5-(2,2-difluoroethoxy)-6-(1-methylpyrazol-4-yl)-1H-indol-2-yl]methanone], the pIC50 at human Yes1 enzyme was 8.28; at human Src enzyme, 7.59; on human Lck enzyme it was 7.68.
